# Results as given in patent publication US20170137387A1, “PHARMACOLOGICALLY ACTIVE QUINAZOLINEDIONE DERIVATIVES” (ORION CORPORATION, priority 2014, published 2017).
# Columns and labels:
# [1] = target: T1, human GABAB1 and GABAB2 receptor subunits (Homo sapiens, UniProt O75899+Q9UBS5); test: Agonism and positive allosteric modulator pharmacology in vitro, two-addition FLIPR calcium assay; assay type: cell-based; details: CHO cells co-expressing Galpha16; for IA (GABAB agonism): agonism efficacy at 30 μM / GABA efficacy at 30 μM; for IA (GABAB positive allosteric modulation): positive allosteric modulator efficacy at 10 μM (with EC10.5 GABA) / GABA efficacy at 30 μM
# T1 construct: expressed in transfected cells; host or cells: CHO cells
# Method: (§1) CHO cells expressing the human GABAB1 and GABAB2 receptor subunits co-expressing promiscuous Galpha16 proteins to force couple the receptor to the intracellular calcium signalling pathway were used to study GABAB pharmacology in vitro. The cells were maintained at 37° C. in a 5% CO2 95% air atmosphere in HAM F-12 medium supplemented with 10% foetal bovine serum and selection antibiotics.
# (§2) The day before the experiment the cells were detached and plated into black-walled clear bottom 384-well plates at a cell density of 20 000 cells per well. The growth medium was removed and the cells were incubated with FLIPR Calcium 5 Assay reagent (Molecular Devices, CA, USA) diluted 1:1 in Probenecid-Ringer for 1 h at 37° C. in dark. Probenecid-Ringer buffer consisted of 150 mM NaCl, 3 mM KCl, 1.2 mM MgCl2, 1 mM CaCl2, 5 mM glucose, 20 mM 2-(4-(2-hydroxyethyl)piperazin-1-yl)ethanesulfonic acid (HEPES), and 2.5 mM Probenecid (pH 7.4 adjusted with 1.0 M NaOH and osmolarity adjusted to […]). Compounds were dissolved in Probenecid-Ringer. […] The samples were excited at 470-495 nm and emission was detected at 515-575 nm. All experiments were performed at 37° C.
# A two-addition protocol was used to determine agonism and positive allosteric modulator pharmacology in the same assay using a kinetic read out. Agonism pharmacology of compounds was studied in the first addition in the concentration range 0.123-30 μM in quadruplicate at each concentration. In the second addition, a low (EC10.5) concentration of GABA was applied to detect the positive allosteric modulator pharmacology of the compounds to be studied. The EC10.5 concentration was determined from the GABA EC50 value using the formula ECF≈(F/(100-F))^1/H·EC50, wherein F is the fraction of full response and H is Hill slope.
# (§3) Baseline fluorescence minimum was subtracted from maximum for the calculation of agonism and positive allosteric modulator pharmacology. Both in the agonism mode and in the allosteric mode, the efficacy was related to the intrinsic activity (IA) of the endogenous agonist GABA at 30 μM (positive allosteric modulator efficacy at 10 μM/GABA efficacy or agonism efficacy at 30 μM/GABA efficacy). To determine potentiation of GABA dose-response, the compounds, at a concentration of 10 μM diluted in Probenecid-Ringer, were added by FLIPR tetra followed by addition of GABA (diluted in water in the concentration range 0.123-10 μM). The EC50 values were determined using a four-parameter logistic fit (model 205 in ActivityBase XE). The EC50 value of GABA was divided with the EC50 value of GABA in the presence of positive allosteric modulator to determine potentiation of GABA dose-response EC50 value.
# [2] = target: T1, human GABAB1 and GABAB2 receptor subunits; test: Potentiation of GABA dose-response, FLIPR calcium assay; assay type: cell-based; details: compound at 10 μM; EC50 of GABA divided by EC50 of GABA in the presence of positive allosteric modulator
# Method: as §1, §2, §3
# T1 sequence (Q9UBS5 15-961 limits assumed): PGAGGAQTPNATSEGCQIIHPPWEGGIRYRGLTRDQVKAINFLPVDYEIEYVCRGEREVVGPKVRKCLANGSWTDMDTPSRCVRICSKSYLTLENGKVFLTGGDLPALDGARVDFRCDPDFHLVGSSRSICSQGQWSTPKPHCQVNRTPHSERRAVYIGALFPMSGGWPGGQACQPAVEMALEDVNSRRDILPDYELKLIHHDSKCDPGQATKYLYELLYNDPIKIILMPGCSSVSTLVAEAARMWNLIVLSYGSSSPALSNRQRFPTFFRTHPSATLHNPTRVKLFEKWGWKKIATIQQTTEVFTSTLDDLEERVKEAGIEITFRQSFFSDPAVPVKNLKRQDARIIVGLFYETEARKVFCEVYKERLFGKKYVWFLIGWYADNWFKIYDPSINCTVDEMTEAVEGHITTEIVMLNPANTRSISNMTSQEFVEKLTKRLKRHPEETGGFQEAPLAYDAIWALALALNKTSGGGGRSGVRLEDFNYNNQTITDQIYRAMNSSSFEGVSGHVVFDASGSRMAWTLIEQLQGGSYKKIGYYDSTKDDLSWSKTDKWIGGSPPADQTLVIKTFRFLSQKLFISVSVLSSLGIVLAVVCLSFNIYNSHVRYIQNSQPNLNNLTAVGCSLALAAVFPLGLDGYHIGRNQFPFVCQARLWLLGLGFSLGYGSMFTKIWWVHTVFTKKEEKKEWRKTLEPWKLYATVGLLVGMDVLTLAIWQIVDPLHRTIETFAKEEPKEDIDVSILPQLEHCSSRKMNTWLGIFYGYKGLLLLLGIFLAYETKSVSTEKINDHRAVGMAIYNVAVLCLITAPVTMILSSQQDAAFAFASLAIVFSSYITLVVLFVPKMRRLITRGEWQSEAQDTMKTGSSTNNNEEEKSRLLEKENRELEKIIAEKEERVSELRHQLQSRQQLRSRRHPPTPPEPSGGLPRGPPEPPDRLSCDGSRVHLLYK
# T1 sequence (O75899 42-941): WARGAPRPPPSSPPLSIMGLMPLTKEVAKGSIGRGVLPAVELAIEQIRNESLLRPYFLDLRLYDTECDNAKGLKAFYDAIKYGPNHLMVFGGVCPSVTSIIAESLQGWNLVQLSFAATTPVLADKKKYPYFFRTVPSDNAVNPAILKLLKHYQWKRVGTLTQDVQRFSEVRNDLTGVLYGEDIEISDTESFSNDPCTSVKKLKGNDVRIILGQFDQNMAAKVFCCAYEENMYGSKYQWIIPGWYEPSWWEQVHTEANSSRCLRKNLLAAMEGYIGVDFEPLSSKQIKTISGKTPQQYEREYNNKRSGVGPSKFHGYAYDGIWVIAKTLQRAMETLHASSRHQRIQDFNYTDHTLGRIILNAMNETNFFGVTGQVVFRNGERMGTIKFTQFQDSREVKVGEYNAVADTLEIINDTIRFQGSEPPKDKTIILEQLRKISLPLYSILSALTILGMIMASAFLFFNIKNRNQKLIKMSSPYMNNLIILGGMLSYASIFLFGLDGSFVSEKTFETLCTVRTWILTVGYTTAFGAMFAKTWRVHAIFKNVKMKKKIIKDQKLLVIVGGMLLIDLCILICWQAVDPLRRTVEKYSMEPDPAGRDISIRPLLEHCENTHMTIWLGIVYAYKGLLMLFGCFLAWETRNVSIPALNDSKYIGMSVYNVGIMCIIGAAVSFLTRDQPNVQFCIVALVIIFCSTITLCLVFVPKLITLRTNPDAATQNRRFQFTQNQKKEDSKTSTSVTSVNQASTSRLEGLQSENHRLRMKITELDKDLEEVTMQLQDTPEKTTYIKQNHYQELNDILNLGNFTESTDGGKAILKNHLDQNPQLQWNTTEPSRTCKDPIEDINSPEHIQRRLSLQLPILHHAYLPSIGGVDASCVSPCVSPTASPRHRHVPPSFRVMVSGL
Structure (SMILES),IA (GABAB agonism) [1],IA (GABAB positive allosteric modulation) [1],Potentiation of GABA (fold) [2]
"C[C@H](c1ccc(Cl)cc1)n1c(=O)c2ccc(Cl)cc2n(CC2(C)COC2)c1=O [Example 137, (R)-7-Chloro-3-(1-(4-chlorophenyl)ethyl)-1-((3-methyloxetan-3-yl)methyl)quinazoline-2,4(1H,3H)-dione]",0.05,0.64,19.7 fold
"CC1(C)Cn2c(=O)n(Cc3ccc(Br)cc3)c(=O)c3ccc(Cl)c(c32)O1 [Example 127, 6-(4-Bromobenzyl)-10-chloro-2,2-dimethyl-2H-[1,4]oxazino[2,3,4-ij]quinazoline-5,7(3H,6H)-dione]",0.02,0.53,6.7 fold
